Legend:
rats = details: comparable to nicotinamide, lower than diethylamine; cited from earlier work
[1] = system: reddening of the skin upon UV-irradiation; assay: UV-erythema test (anti-inflammation) with a trial person; assay type: in vivo; details: for Readings of reddening intensities: 15±1 mg gel applied to irradiated skin, lower arm, UV C 150 seconds
Method: The NMN diclofenac salt prepared according to Example 1 was tested in experiments with a trial person in an […] according to Hiramatsu Y et al., Arzneimittel-forschung 1990, vol. 40 (11), 1117, and Wilhelm G, Schweiz. Med. Wochenschrift 1949, vol. 79, 577. The criterion of efficacy was the inhibition of the reddening of the skin upon UV-irradiation during the time of observation.
UV-Erythema Test (Anti-Inflammation):
• Lamp used: UV C lamp (Sylvania, Hg low pressure), 9 W • Irradiated area: circular, […] • Distance from lamp: 10 cm • Time of irradiation: 150 seconds • Site: lower arm, shaven, proximal side • Amount of gel applied to irradiated surface: 15±1 mg 3.5 to 5 minutes after end of irradiation
Readings of reddening intensities at given time intervals (arbitrary units): […]

| SMILES | Toxicity (rats) | Readings of reddening intensities ([1]; 40 minutes after start of irradiation) | Readings of reddening intensities ([1]; 60 minutes after start of irradiation) | Readings of reddening intensities ([1]; 90 minutes after start of irradiation) | Readings of reddening intensities ([1]; 120 minutes after start of irradiation) | Readings of reddening intensities ([1]; 180 minutes after start of irradiation) | Activity in UV-erythema test compared with Voltaren-Emulgel ([1]; comparison with Voltaren-Emulgel (diethylammonium salt of diclofenac)) |
| --- | --- | --- | --- | --- | --- | --- | --- |
| C[n+]1cccc(C(N)=O)c1 [NMN, N(1)-methylnicotinamide] | low toxicity | – | – | – | – | – | – |
| C[n+]1cccc(C(N)=O)c1.O=C([O-])Cc1ccccc1Nc1c(Cl)cccc1Cl [NMN-Diclofenac, NMN-Salt of Diclofenac] | – | 1 arbitrary units | 0.5 arbitrary units | 0 arbitrary units | 0.5 arbitrary units | 0.5 arbitrary units | superior activity |

Source: patent publication US20080249140A1, “Quaternary 3 -Amido, N-Methylpyridinium Salts as Anti-Inflammatory Agents” (priority 2005, published 2008)
